Results from ChEMBL document CHEMBL1201862, “PubChem BioAssay data set” (2004).
Calls of active or inactive are those of the source.

Experiments:
[1] = target: T1, Mucolipin-3 (Homo sapiens, UniProt Q8TDD5); test: Dose response cell-based high-throughput screening assay for agonists of the transient receptor potential channel ML3 (TRPML3). [Related pubchem assays: 1526, 1424, 1448 ]; assay type: functional
T1 sequence (Q8TDD5 whole entry): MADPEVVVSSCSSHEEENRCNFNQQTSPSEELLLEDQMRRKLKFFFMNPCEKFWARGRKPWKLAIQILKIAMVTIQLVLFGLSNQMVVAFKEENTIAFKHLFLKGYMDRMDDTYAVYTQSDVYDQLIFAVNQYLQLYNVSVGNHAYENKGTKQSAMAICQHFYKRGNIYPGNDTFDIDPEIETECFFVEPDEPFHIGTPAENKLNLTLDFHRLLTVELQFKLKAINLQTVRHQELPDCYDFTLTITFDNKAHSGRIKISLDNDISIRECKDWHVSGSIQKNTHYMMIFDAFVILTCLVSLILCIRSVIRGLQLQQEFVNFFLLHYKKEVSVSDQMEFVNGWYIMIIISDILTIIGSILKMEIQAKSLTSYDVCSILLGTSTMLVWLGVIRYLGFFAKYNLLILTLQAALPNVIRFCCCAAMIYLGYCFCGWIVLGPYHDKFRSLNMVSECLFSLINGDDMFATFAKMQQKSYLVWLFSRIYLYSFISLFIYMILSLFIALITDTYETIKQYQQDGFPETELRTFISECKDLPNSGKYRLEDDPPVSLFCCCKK

[2] = target: T2, Ion channel NompC (Danio rerio, UniProt Q7T1G6); test: Late stage counterscreen for the probe development effort to identify selective agonists of the Transient Receptor Potential Channels 3 (TRPML3): fluorescence-based cell-based dose response assay for TRPN1 agonists.; assay type: functional
[3] = target: T1, Mucolipin-3; test: TRPML3 agonist potency, dose response, cell-based, calcium fluorescence (AID 2510); assay type: functional
[4] = target: T2, Ion channel NompC; test: Fluorescence counterscreen assay for TRPML3 agonists: dose response cell-based high-throughput screening assay to identify agonists of the transient receptor potential channel N1 (TRPN1). [Related pubchem assays: 1526, 1424, 1448 ]; assay type: functional
[5] = target: T3, Corticotropin-releasing factor receptor 2/Corticotropin-releasing factor-binding protein (Homo sapiens, UniProt P24387+Q13324); test: activators of CRF receptor 2 with binding protein – uHTS hits, confirmation (AID 602473); assay type: functional; conditions: read-out: EC50_Mean
T3 sequence (Q13324 whole entry): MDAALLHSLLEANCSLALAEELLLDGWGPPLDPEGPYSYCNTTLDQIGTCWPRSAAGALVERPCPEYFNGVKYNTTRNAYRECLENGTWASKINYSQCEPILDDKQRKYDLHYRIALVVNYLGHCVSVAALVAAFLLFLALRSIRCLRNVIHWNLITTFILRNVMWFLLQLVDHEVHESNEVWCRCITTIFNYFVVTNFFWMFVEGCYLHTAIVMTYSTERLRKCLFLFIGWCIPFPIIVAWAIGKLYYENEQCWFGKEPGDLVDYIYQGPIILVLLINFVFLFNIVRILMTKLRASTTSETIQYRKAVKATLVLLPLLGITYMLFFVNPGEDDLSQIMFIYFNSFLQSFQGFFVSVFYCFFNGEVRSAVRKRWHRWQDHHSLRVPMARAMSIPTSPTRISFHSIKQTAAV
T3 sequence (P24387 whole entry): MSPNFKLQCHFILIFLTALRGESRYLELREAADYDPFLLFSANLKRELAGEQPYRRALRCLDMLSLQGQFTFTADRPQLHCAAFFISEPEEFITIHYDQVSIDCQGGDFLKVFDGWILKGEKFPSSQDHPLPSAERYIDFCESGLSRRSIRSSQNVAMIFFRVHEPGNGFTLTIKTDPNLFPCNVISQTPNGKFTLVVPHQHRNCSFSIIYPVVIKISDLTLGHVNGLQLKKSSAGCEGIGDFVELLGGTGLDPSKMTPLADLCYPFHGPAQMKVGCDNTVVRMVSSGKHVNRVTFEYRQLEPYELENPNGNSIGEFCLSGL

[6] = target: Beta Lactamase (Pseudomonas aeruginosa, UniProt Q932Y6); test: beta-lactamase reporter inhibitor potency, dose response, artefact control for TLR9-MyD88 binding inhibitor project, BLA reporter cells, FRET fluorescence (AID 588341); assay type: cell-based;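 also: cell based assay in CHO-K1 cells stably expressing beta-lactamase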
[7] = test system: CHO; test: cytotoxicity in TLR9-MyD88 CHO cells, dose response, cytotoxicity control for TLR9-MyD88 binding inhibitor project, cell-based, luminescence (AID 588339); assay type: functional, hamster; conditions: Cricetulus griseus;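 also: CHO cells stably coexpressing TLR9 and MyD88 fusions from primary screen; compound exposure lasted 48 hours before viability readout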
[8] = test system: A-375; test: MITF: Counter assay: A375 proliferation Measured in Cell-Based System Using Plate Reader - 2084-03_Inhibitor_Dose_DryPowder_Activity. [Related pubchem assays (depositor defined):AID488944]; assay type: functional; conditions: Homo sapiens
[9] = target: Luciferin 4-monooxygenase (Photinus pyralis, UniProt P08659); test: firefly luciferase enzyme inhibitors, dose response, biochemical, luminescence (AID 1891)
[10] = target: T4, Protein RecA (Mycobacterium tuberculosis, UniProt P9WHJ3); test: Fluorescence Cell-Free Homogeneous Dose Retest to Identify Inhibitors of RecA-Intein Splicing Activity. [Related pubchem assays (depositor defined):AID2097, AID2223, AID489010, AID492950]; assay type: functional
T4 sequence (P9WHJ3 whole entry): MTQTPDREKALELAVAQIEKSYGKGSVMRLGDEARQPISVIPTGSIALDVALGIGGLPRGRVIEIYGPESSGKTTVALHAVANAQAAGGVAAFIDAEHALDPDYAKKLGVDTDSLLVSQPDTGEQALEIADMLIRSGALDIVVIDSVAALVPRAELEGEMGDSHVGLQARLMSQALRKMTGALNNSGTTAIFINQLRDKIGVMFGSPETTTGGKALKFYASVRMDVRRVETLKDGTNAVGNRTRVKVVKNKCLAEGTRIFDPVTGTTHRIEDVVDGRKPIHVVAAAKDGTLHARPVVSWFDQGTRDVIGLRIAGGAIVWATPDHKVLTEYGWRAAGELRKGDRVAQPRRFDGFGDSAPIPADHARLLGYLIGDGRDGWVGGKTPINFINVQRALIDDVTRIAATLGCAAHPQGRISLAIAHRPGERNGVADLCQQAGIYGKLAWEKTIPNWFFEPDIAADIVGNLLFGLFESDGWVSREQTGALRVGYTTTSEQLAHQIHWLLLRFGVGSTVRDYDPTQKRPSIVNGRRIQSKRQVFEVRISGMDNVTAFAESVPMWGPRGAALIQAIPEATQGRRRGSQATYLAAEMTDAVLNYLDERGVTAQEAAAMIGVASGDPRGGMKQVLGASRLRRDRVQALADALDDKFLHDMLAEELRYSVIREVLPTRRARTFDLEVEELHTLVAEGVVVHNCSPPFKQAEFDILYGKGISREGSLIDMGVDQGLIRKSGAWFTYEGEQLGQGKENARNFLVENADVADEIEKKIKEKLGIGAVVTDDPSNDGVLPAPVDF

[11] = target: T5, Sphingosine 1-phosphate receptor 4 (Homo sapiens, UniProt O95977); test: Fluorescence dose response cell-based high throughput screening assay for antagonists of the Sphingosine 1-Phosphate Receptor 4 (S1P4). [Related pubchem assays: 1524 (Confirmation in triplicates.), 1510 (Primary screen.)]; assay type: functional
T5 sequence (O95977 whole entry): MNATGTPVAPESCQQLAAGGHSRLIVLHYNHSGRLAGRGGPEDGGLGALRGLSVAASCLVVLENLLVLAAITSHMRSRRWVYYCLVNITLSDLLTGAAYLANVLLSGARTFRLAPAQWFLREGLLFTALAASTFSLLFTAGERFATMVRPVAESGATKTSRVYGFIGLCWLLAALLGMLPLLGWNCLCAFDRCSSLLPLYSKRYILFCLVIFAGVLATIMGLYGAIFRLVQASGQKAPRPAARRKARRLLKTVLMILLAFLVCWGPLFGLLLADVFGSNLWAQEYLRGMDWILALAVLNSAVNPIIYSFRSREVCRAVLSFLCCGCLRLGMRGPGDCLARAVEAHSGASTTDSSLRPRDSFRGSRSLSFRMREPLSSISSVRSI

[12] = target: T6, Replicative DNA helicase DnaB (Mycobacterium tuberculosis, UniProt P9WMR3); test: DnaB intein splicing inhibitors, dose response, biochemical, cell-free fluorescence (AID 449749); assay type: functional
T6 sequence (P9WMR3 whole entry): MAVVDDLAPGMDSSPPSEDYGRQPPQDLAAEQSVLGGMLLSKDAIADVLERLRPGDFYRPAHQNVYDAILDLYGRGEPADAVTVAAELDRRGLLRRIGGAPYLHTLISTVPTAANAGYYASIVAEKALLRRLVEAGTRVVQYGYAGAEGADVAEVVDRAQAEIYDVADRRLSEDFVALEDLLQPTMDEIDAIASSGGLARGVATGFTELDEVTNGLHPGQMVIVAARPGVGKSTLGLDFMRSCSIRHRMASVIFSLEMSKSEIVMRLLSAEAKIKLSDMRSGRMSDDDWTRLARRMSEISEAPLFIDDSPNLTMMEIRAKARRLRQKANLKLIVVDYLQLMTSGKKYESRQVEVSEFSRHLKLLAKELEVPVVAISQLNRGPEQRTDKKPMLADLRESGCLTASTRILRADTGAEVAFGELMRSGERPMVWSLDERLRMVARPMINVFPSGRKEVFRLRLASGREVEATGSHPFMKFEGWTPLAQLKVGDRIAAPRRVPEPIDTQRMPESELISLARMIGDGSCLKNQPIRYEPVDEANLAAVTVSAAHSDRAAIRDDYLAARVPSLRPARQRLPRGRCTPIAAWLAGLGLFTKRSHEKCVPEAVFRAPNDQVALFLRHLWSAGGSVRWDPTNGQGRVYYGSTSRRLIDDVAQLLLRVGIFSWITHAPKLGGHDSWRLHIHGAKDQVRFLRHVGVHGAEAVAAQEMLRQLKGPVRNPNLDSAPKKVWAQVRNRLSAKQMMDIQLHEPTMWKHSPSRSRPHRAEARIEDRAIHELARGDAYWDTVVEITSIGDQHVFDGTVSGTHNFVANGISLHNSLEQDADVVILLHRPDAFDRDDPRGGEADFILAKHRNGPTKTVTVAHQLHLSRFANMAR

[13] = test system: A-375; test: A375 melanoma cell viability reduction, dose response, counter-screen for MITF modulator project, cherry-pick samples, set 2 (AID 540335); assay type: functional, cell-based; conditions: Homo sapiens
[14] = target: Paired box protein Pax-8 (Homo sapiens, UniProt Q06710); test: inhibitors of PAX8-driven TPO luciferase reporter, dose response, RMG-I cells, cherry-pick (AID 687027); assay type: functional, cell-based;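 also: luciferase reporter driven by Pax8 target thyroperoxidase promoter measured by SteadyGlo luminescence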
[15] = Fluorescence Cell-Based Dose Response to Identify Inhibitors of Thrombin Receptor-Activating Peptide SFLLRN-Mediated P-Selectin Induction on Platelets. [Related pubchem assays: 1663 (Primary HTS), 1889 (retest at dose ), 1891 (counterscreen), 1678 (Project Summary)]; assay type: functional
[16] = target: Sphingosine 1-phosphate receptor 1 (Homo sapiens, UniProt P21453); assay type: functional;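 also: Tango beta-arrestin reporter U2OS cells stimulated with S1P near its EC80; inhibitor potency meaning antagonism of receptor activation by the natural agonist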
[17] = Luminescence Cell-Based Dose Confirmation HTS to Identify Inhibitors of Platelet Dense Granule Release. [Related pubchem assays: 1663 (Primary HTS), 1678 (Summary of Project)]; assay type: functional
[18] = target: T7, NADPH oxidase 1 (Homo sapiens, UniProt Q9Y5S8); test: Late-stage luminescence-based cell-based dose response assay to identify inhibitors of NADPH oxidase 1 (NOX1): Synthesized analogs 2.; assay type: functional
T7 sequence (Q9Y5S8 whole entry): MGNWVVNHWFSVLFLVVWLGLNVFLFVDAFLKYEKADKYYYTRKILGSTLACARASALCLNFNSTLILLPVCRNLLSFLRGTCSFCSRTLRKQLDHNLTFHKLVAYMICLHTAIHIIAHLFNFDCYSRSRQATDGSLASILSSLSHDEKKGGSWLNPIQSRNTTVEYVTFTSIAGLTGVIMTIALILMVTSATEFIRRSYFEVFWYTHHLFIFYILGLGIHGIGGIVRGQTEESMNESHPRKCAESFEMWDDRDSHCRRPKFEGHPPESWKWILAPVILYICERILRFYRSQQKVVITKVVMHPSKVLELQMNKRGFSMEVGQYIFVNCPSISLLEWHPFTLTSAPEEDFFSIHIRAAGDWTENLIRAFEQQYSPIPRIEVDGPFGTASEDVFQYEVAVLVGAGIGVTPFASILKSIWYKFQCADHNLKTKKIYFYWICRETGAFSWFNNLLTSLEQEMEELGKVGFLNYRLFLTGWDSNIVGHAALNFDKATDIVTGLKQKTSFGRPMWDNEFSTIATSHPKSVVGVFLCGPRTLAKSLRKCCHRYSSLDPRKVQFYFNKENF

[19] = cytotoxicity in KRAS-transformed pancreatic duct cells, primary screen, cell-based, fluorescence, HTS (AID 431); assay type: functional; conditions: Homo sapiens;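 also: cell line used: HPDE-C7K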
[20] = target: Cytochrome P450 2C19 (Homo sapiens, UniProt P33261); test: qHTS Assay for Inhibitors and Substrates of Cytochrome P450 2C19. [Related pubchem assays: 410 ]; assay type: ADME; conditions: read-out: Potency
[21] = cytotoxicity in HPDE-C7 cells, cell-based, fluorescence, HTS (AID 430); assay type: functional; conditions: Homo sapiens
[22] = target: Muscarinic acetylcholine receptor M1 (Rattus norvegicus, UniProt P08482); test: rat M1 positive allosteric modulator potency, dose response, cell-based, calcium mobilization, CHO-K1, ACh EC20 (AID 2425); assay type: functional
Chain of Muscarinic acetylcholine receptor M1 (P08482 whole entry): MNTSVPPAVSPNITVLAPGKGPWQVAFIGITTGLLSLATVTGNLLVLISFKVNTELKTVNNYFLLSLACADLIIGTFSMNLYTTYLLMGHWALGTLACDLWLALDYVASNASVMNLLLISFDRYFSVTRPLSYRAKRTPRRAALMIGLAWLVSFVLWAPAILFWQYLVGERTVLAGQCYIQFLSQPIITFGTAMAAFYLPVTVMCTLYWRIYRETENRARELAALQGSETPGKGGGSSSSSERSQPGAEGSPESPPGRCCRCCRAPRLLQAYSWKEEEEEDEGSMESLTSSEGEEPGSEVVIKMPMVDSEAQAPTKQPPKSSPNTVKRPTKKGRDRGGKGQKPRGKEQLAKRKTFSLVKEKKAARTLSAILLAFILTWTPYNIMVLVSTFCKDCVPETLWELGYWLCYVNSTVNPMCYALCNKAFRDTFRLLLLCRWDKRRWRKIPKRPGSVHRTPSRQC

T2 sequence (Q7T1G6 whole entry): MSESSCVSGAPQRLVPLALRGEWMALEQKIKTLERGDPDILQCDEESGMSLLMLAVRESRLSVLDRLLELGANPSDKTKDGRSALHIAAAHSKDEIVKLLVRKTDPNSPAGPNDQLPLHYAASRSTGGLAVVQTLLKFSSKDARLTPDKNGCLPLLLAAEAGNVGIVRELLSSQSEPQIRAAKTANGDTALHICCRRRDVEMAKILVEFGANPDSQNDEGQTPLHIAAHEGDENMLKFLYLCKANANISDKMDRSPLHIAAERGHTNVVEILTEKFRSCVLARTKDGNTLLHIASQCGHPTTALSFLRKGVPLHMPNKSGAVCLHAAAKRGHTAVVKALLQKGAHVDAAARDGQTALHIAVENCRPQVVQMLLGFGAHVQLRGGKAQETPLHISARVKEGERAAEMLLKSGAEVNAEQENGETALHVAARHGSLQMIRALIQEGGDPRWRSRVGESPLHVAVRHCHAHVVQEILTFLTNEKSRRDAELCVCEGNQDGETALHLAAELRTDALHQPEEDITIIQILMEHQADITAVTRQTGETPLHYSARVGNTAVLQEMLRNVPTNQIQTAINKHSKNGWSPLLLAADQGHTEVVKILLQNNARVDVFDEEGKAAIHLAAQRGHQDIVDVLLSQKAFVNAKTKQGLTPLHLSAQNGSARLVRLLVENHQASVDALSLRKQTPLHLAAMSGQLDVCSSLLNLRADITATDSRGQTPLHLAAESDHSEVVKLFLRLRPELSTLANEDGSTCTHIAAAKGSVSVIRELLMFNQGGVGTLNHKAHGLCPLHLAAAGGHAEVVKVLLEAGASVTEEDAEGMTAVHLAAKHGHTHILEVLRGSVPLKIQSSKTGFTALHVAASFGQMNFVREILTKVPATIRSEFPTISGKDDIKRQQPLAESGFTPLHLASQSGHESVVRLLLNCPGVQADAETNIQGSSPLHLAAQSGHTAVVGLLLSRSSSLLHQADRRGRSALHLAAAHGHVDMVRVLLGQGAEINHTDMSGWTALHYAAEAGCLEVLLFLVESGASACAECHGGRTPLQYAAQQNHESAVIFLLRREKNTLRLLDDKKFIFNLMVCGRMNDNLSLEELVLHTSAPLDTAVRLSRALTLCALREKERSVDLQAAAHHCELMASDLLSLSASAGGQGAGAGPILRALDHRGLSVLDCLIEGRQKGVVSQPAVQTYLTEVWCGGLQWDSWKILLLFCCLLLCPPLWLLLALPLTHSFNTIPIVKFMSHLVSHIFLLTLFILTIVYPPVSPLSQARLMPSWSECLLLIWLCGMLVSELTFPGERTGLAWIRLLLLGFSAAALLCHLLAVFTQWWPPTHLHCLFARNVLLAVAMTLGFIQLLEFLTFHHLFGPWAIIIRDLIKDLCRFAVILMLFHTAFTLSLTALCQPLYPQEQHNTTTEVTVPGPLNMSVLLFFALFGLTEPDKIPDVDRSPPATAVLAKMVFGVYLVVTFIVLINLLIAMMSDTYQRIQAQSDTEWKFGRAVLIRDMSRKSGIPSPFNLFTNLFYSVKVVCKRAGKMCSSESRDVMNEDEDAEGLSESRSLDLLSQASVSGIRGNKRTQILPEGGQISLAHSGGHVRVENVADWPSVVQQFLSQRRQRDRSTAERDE
Chain of Cytochrome P450 2C19 (P33261 whole entry): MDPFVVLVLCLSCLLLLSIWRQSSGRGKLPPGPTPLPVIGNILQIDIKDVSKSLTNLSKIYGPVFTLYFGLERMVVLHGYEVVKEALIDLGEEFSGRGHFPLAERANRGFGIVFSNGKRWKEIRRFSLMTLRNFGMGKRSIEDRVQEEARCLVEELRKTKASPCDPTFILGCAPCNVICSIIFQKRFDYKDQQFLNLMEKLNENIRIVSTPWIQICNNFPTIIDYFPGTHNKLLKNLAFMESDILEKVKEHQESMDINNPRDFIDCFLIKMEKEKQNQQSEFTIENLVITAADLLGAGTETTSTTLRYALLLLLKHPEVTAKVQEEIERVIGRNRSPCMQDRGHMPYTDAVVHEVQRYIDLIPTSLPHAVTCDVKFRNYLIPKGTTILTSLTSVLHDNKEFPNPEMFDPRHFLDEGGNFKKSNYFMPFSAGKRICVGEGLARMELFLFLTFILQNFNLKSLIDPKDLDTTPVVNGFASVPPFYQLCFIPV
Chain of Paired box protein Pax-8 (Q06710 whole entry): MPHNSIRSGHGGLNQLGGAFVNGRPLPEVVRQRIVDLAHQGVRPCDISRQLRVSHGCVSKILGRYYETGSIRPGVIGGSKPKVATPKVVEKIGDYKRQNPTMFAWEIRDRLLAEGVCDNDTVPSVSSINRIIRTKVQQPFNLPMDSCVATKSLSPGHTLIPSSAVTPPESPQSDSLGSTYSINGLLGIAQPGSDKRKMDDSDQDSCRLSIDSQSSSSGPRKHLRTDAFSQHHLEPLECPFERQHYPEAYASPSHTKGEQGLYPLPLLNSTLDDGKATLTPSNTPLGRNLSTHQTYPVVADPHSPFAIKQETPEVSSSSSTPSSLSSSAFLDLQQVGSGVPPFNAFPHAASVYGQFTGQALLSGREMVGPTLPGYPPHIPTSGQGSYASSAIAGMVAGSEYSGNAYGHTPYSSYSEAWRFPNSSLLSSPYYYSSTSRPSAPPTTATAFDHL
Chain of Beta Lactamase (Q932Y6 whole entry, the tested form may be a part): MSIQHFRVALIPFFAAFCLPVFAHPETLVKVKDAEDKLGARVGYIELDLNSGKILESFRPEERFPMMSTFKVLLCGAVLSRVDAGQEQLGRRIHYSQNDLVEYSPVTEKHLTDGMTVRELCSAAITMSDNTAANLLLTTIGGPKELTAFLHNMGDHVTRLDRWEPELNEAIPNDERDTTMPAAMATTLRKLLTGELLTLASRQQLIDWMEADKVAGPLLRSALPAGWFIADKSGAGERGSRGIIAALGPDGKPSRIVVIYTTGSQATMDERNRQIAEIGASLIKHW
Chain of Luciferin 4-monooxygenase (P08659 whole entry): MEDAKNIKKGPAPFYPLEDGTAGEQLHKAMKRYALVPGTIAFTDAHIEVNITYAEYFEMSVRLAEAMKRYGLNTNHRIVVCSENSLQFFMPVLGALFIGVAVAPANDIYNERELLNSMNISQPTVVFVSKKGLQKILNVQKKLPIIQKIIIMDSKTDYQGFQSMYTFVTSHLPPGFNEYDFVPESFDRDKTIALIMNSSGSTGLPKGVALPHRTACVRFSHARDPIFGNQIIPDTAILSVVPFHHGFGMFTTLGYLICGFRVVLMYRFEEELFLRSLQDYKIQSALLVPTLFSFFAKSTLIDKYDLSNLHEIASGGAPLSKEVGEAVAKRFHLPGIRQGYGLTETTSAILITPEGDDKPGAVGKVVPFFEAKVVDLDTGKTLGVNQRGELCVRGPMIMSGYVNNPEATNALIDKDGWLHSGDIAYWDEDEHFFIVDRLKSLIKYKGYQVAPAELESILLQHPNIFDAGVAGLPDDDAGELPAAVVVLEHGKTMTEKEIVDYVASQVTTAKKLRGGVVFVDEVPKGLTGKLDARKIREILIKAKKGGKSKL
Chain of Sphingosine 1-phosphate receptor 1 (P21453 whole entry): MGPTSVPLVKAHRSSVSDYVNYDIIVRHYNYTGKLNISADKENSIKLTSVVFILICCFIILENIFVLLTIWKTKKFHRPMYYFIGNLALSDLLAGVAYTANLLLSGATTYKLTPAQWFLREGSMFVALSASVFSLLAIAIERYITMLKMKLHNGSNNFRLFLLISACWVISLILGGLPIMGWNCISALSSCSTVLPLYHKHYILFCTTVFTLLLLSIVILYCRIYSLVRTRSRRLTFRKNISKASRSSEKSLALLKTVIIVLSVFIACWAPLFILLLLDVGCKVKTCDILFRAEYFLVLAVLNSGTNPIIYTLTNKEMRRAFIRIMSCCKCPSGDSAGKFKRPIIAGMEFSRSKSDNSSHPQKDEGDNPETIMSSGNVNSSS

CC1CCN(S(=O)(=O)c2ccc(C(C)C)cc2)CC1
EC50 [1]: 1.33 µM (active) | EC50 [2]: > 29.9 µM (not active) | EC50 [3]: 1.12 µM (active) | EC50 [4]: > 29.9 µM (not active) | EC50 [5]: > 53 µM (inactive)

CS(=O)(=O)c1ncc(Cl)c(C(=O)Nc2ccc3ccccc3c2)n1
IC50 [6]: 7.13 µM (active) | IC50 [7]: 1.95 µM (active) | AC50 [8]: > 35 µM (active) | EC50 [9]: > 112 µM (not active) | EC50 [10]: 4.84 µM (active) | IC50 [11]: 2.07 µM (active) | AC50 [12]: 2.49 µM (active) | AC50 [13]: > 35 µM (active) | AC50 [14]: 7.81 µM (active) | EC50 [15]: < 30 µM (active) | IC50 [16]: > 5.53 µM (not active) | EC50 [17]: 3.6 µM (active)

CN1c2ccccc2Sc2cc(Br)ccc21
IC50 [18]: > 50 µM (not active)

Cc1nc2sccn2c(=O)c1CCN1CCC(=C(c2ccccc2)c2ccc(F)cc2)CC1
EC50 [19]: 17.4 µM (active) | AC50 [20]: 15.8 µM (inconclusive) | EC50 [21]: 18.3 µM (active)

Cn1cc(-c2cc(F)c(CN3C(=O)C(=O)c4ccccc43)c(F)c2)cn1
EC50 [22]: 0.885 µM (active)
